Assay results from the supplement of paper PMC10307832.

Experiments:
Assay in all cases: relative viability (nuclei count vs DMSO), 5 days (fraction); higher = more cells survive
BI-D1870 + Foretinib = compound: CC(C)CCN1c2nc(Nc3cc(F)c(O)c(F)c3)ncc2N(C)C(=O)C1C [BI-D1870] + COc1cc2c(Oc3ccc(NC(=O)C4(C(=O)Nc5ccc(F)cc5)CC4)cc3F)ccnc2cc1OCCCN1CCOCC1 [Foretinib] (partner 0.25 µM)
Procedure, shortened: (§1)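 Relative viability is defined as nuclei in treated wells over nuclei in vehicle wells. Duplicate plates were run and medians reported. Lung cancer cell lines in 1536-well plates were dosed by pin tool one day after seeding, with one drug or with a fixed anchor-drug dose plus five library-drug doses (not always all listed) in √10 steps, and nuclei were counted after 5 days.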

BI-D1870 + Lapatinib = compound: CC(C)CCN1c2nc(Nc3cc(F)c(O)c(F)c3)ncc2N(C)C(=O)C1C [BI-D1870] + CS(=O)(=O)CCNCc1ccc(-c2ccc3ncnc(Nc4ccc(OCc5cccc(F)c5)c(Cl)c4)c3c2)o1 [Lapatinib] (partner 2 µM)
Procedure, shortened: as §1

Zebularine + OSI-027 = compound: O=c1ncccn1[C@@H]1O[C@H](CO)[C@@H](O)[C@H]1O [Zebularine] + COc1cccc2cc(-c3nc([C@H]4CC[C@H](C(=O)O)CC4)n4ncnc(N)c34)[nH]c12 [OSI-027] (partner 0.5 µM)
Procedure, shortened: as §1

Zebularine + AZD7762 = compound: O=c1ncccn1[C@@H]1O[C@H](CO)[C@@H](O)[C@H]1O [Zebularine] + NC(=O)Nc1cc(-c2cccc(F)c2)sc1C(=O)N[C@H]1CCCNC1 [AZD7762] (partner 0.2 µM)
Procedure, shortened: as §1

LC-2-ad
relative viability (BI-D1870 + Foretinib; first compound 0.04 µM): 1.01
relative viability (BI-D1870 + Foretinib; first compound 0.1265 µM): 0.932
relative viability (BI-D1870 + Foretinib; first compound 0.4 µM): 0.946
relative viability (BI-D1870 + Foretinib; first compound 1.265 µM): 0.975
relative viability (BI-D1870 + Foretinib; first compound 4 µM): 0.626
relative viability (BI-D1870 + Lapatinib; first compound 0.04 µM): 1.04
relative viability (BI-D1870 + Lapatinib; first compound 0.1265 µM): 0.932
relative viability (BI-D1870 + Lapatinib; first compound 0.4 µM): 0.975
relative viability (BI-D1870 + Lapatinib; first compound 1.265 µM): 1.08
relative viability (BI-D1870 + Lapatinib; first compound 4 µM): 0.971
relative viability (Zebularine + OSI-027; first compound 1 µM): 0.858
relative viability (Zebularine + OSI-027; first compound 3.162 µM): 0.559
relative viability (Zebularine + OSI-027; first compound 10 µM): 0.546
relative viability (Zebularine + OSI-027; first compound 31.62 µM): 0.573
relative viability (Zebularine + OSI-027; first compound 100 µM): 0.529
relative viability (Zebularine + AZD7762; first compound 1 µM): 0.907
relative viability (Zebularine + AZD7762; first compound 3.162 µM): 0.888
relative viability (Zebularine + AZD7762; first compound 10 µM): 0.525
relative viability (Zebularine + AZD7762; first compound 31.62 µM): 0.812
relative viability (Zebularine + AZD7762; first compound 100 µM): 0.357

LCLC-97TM1
relative viability (BI-D1870 + Foretinib; first compound 0.04 µM): 1.1
relative viability (BI-D1870 + Foretinib; first compound 0.1265 µM): 0.975
relative viability (BI-D1870 + Foretinib; first compound 0.4 µM): 0.893
relative viability (BI-D1870 + Foretinib; first compound 1.265 µM): 1.09
relative viability (BI-D1870 + Foretinib; first compound 4 µM): 0.843
relative viability (BI-D1870 + Lapatinib; first compound 0.04 µM): 1.35
relative viability (BI-D1870 + Lapatinib; first compound 0.1265 µM): 0.988
relative viability (BI-D1870 + Lapatinib; first compound 0.4 µM): 0.622
relative viability (BI-D1870 + Lapatinib; first compound 1.265 µM): 1.3
relative viability (BI-D1870 + Lapatinib; first compound 4 µM): 0.916
relative viability (Zebularine + OSI-027; first compound 1 µM): 0.572
relative viability (Zebularine + OSI-027; first compound 3.162 µM): 0.533
relative viability (Zebularine + OSI-027; first compound 10 µM): 0.258
relative viability (Zebularine + OSI-027; first compound 31.62 µM): 0.198
relative viability (Zebularine + OSI-027; first compound 100 µM): 0.213
relative viability (Zebularine + AZD7762; first compound 1 µM): 0.127
relative viability (Zebularine + AZD7762; first compound 3.162 µM): 0.216
relative viability (Zebularine + AZD7762; first compound 10 µM): 0.142
relative viability (Zebularine + AZD7762; first compound 31.62 µM): 0.134
relative viability (Zebularine + AZD7762; first compound 100 µM): 0.13

LK-2
relative viability (BI-D1870 + Foretinib; first compound 0.04 µM): 1.32
relative viability (BI-D1870 + Foretinib; first compound 0.1265 µM): 1.13
relative viability (BI-D1870 + Foretinib; first compound 0.4 µM): 1.34
relative viability (BI-D1870 + Foretinib; first compound 1.265 µM): 1.51
relative viability (BI-D1870 + Foretinib; first compound 4 µM): 1.6
relative viability (BI-D1870 + Lapatinib; first compound 0.04 µM): 1.01
relative viability (BI-D1870 + Lapatinib; first compound 0.1265 µM): 0.888
relative viability (BI-D1870 + Lapatinib; first compound 0.4 µM): 0.985
relative viability (BI-D1870 + Lapatinib; first compound 1.265 µM): 1.04
relative viability (BI-D1870 + Lapatinib; first compound 4 µM): 0.977
relative viability (Zebularine + OSI-027; first compound 1 µM): 0.187
relative viability (Zebularine + OSI-027; first compound 3.162 µM): 0.181
relative viability (Zebularine + OSI-027; first compound 10 µM): 0.195
relative viability (Zebularine + OSI-027; first compound 31.62 µM): 0.202
relative viability (Zebularine + OSI-027; first compound 100 µM): 0.162
relative viability (Zebularine + AZD7762; first compound 1 µM): 0.492
relative viability (Zebularine + AZD7762; first compound 3.162 µM): 0.382
relative viability (Zebularine + AZD7762; first compound 10 µM): 0.49
relative viability (Zebularine + AZD7762; first compound 31.62 µM): 0.23
relative viability (Zebularine + AZD7762; first compound 100 µM): 0.16

LOU-NH91
relative viability (BI-D1870 + Foretinib; first compound 0.04 µM): 0.979
relative viability (BI-D1870 + Foretinib; first compound 0.1265 µM): 0.897
relative viability (BI-D1870 + Foretinib; first compound 0.4 µM): 0.876
relative viability (BI-D1870 + Foretinib; first compound 1.265 µM): 1.01
relative viability (BI-D1870 + Foretinib; first compound 4 µM): 0.817
relative viability (BI-D1870 + Lapatinib; first compound 0.04 µM): 0.837
relative viability (BI-D1870 + Lapatinib; first compound 0.1265 µM): 0.717
relative viability (BI-D1870 + Lapatinib; first compound 0.4 µM): 0.782
relative viability (BI-D1870 + Lapatinib; first compound 1.265 µM): 0.837
relative viability (BI-D1870 + Lapatinib; first compound 4 µM): 0.677
relative viability (Zebularine + OSI-027; first compound 1 µM): 0.746
relative viability (Zebularine + OSI-027; first compound 3.162 µM): 0.7
relative viability (Zebularine + OSI-027; first compound 10 µM): 0.66
relative viability (Zebularine + OSI-027; first compound 31.62 µM): 0.699
relative viability (Zebularine + OSI-027; first compound 100 µM): 0.571
relative viability (Zebularine + AZD7762; first compound 1 µM): 0.522
relative viability (Zebularine + AZD7762; first compound 3.162 µM): 0.751
relative viability (Zebularine + AZD7762; first compound 10 µM): 0.568
relative viability (Zebularine + AZD7762; first compound 31.62 µM): 0.743
relative viability (Zebularine + AZD7762; first compound 100 µM): 0.627

LU99A
relative viability (BI-D1870 + Foretinib; first compound 0.04 µM): 0.913
relative viability (BI-D1870 + Foretinib; first compound 0.1265 µM): 0.683
relative viability (BI-D1870 + Foretinib; first compound 0.4 µM): 0.696
relative viability (BI-D1870 + Foretinib; first compound 1.265 µM): 0.788
relative viability (BI-D1870 + Foretinib; first compound 4 µM): 0.796
relative viability (BI-D1870 + Lapatinib; first compound 0.04 µM): 1.11
relative viability (BI-D1870 + Lapatinib; first compound 0.1265 µM): 0.942
relative viability (BI-D1870 + Lapatinib; first compound 0.4 µM): 0.928
relative viability (BI-D1870 + Lapatinib; first compound 1.265 µM): 0.941
relative viability (BI-D1870 + Lapatinib; first compound 4 µM): 0.939
relative viability (Zebularine + OSI-027; first compound 1 µM): 0.314
relative viability (Zebularine + OSI-027; first compound 3.162 µM): 0.278
relative viability (Zebularine + OSI-027; first compound 10 µM): 0.284
relative viability (Zebularine + OSI-027; first compound 31.62 µM): 0.294
relative viability (Zebularine + OSI-027; first compound 100 µM): 0.216
relative viability (Zebularine + AZD7762; first compound 1 µM): 0.348
relative viability (Zebularine + AZD7762; first compound 3.162 µM): 0.28
relative viability (Zebularine + AZD7762; first compound 10 µM): 0.267
relative viability (Zebularine + AZD7762; first compound 31.62 µM): 0.24
relative viability (Zebularine + AZD7762; first compound 100 µM): 0.115

LXF-289
relative viability (BI-D1870 + Foretinib; first compound 0.04 µM): 1.01
relative viability (BI-D1870 + Foretinib; first compound 0.1265 µM): 0.942
relative viability (BI-D1870 + Foretinib; first compound 0.4 µM): 0.956
relative viability (BI-D1870 + Foretinib; first compound 1.265 µM): 0.941
relative viability (BI-D1870 + Foretinib; first compound 4 µM): 0.88
relative viability (BI-D1870 + Lapatinib; first compound 0.04 µM): 0.927
relative viability (BI-D1870 + Lapatinib; first compound 0.1265 µM): 0.831
relative viability (BI-D1870 + Lapatinib; first compound 0.4 µM): 0.881
relative viability (BI-D1870 + Lapatinib; first compound 1.265 µM): 0.87
relative viability (BI-D1870 + Lapatinib; first compound 4 µM): 0.788
relative viability (Zebularine + OSI-027; first compound 1 µM): 0.827
relative viability (Zebularine + OSI-027; first compound 3.162 µM): 0.69
relative viability (Zebularine + OSI-027; first compound 10 µM): 0.626
relative viability (Zebularine + OSI-027; first compound 31.62 µM): 0.564
relative viability (Zebularine + OSI-027; first compound 100 µM): 0.329
relative viability (Zebularine + AZD7762; first compound 1 µM): 1.07
relative viability (Zebularine + AZD7762; first compound 3.162 µM): 1.16
relative viability (Zebularine + AZD7762; first compound 10 µM): 1.11
relative viability (Zebularine + AZD7762; first compound 31.62 µM): 0.699
relative viability (Zebularine + AZD7762; first compound 100 µM): 0.281

NCI-H23
relative viability (BI-D1870 + Foretinib; first compound 0.04 µM): 1
relative viability (BI-D1870 + Foretinib; first compound 0.1265 µM): 1.03
relative viability (BI-D1870 + Foretinib; first compound 0.4 µM): 0.986
relative viability (BI-D1870 + Foretinib; first compound 1.265 µM): 0.83
relative viability (BI-D1870 + Foretinib; first compound 4 µM): 0.781
relative viability (BI-D1870 + Lapatinib; first compound 0.04 µM): 1.41
relative viability (BI-D1870 + Lapatinib; first compound 0.1265 µM): 0.984
relative viability (BI-D1870 + Lapatinib; first compound 0.4 µM): 1.04
relative viability (BI-D1870 + Lapatinib; first compound 1.265 µM): 1.31
relative viability (BI-D1870 + Lapatinib; first compound 4 µM): 0.664
relative viability (Zebularine + OSI-027; first compound 1 µM): 0.674
relative viability (Zebularine + OSI-027; first compound 3.162 µM): 0.55
relative viability (Zebularine + OSI-027; first compound 10 µM): 0.368
relative viability (Zebularine + OSI-027; first compound 31.62 µM): 0.628
relative viability (Zebularine + OSI-027; first compound 100 µM): 0.518
relative viability (Zebularine + AZD7762; first compound 1 µM): 0.3
relative viability (Zebularine + AZD7762; first compound 3.162 µM): 0.375
relative viability (Zebularine + AZD7762; first compound 31.62 µM): 0.23
relative viability (Zebularine + AZD7762; first compound 100 µM): 0.254

NCI-H322M
relative viability (BI-D1870 + Foretinib; first compound 0.04 µM): 1.06
relative viability (BI-D1870 + Foretinib; first compound 0.1265 µM): 0.805
relative viability (BI-D1870 + Foretinib; first compound 0.4 µM): 0.868
relative viability (BI-D1870 + Foretinib; first compound 1.265 µM): 0.87
relative viability (BI-D1870 + Foretinib; first compound 4 µM): 0.696
relative viability (BI-D1870 + Lapatinib; first compound 0.04 µM): 0.605
relative viability (BI-D1870 + Lapatinib; first compound 0.1265 µM): 0.535
relative viability (BI-D1870 + Lapatinib; first compound 0.4 µM): 0.598
relative viability (BI-D1870 + Lapatinib; first compound 1.265 µM): 0.529
relative viability (BI-D1870 + Lapatinib; first compound 4 µM): 0.559
relative viability (Zebularine + OSI-027; first compound 1 µM): 0.524
relative viability (Zebularine + OSI-027; first compound 3.162 µM): 0.531
relative viability (Zebularine + OSI-027; first compound 10 µM): 0.47
relative viability (Zebularine + OSI-027; first compound 31.62 µM): 0.5
relative viability (Zebularine + OSI-027; first compound 100 µM): 0.521
relative viability (Zebularine + AZD7762; first compound 1 µM): 0.555
relative viability (Zebularine + AZD7762; first compound 3.162 µM): 0.606
relative viability (Zebularine + AZD7762; first compound 10 µM): 0.572
relative viability (Zebularine + AZD7762; first compound 31.62 µM): 0.522
relative viability (Zebularine + AZD7762; first compound 100 µM): 0.528
